According to ChEMBL document CHEMBL1128555, “Derivatives of 5-[[1-(4'-carboxybenzyl)imidazolyl]methylidene]hydantoins as orally active angiotensin II receptor antagonists” (J Med Chem, 1995):

Experiments:
[1] = molecular target: T1, Angiotensin II receptor (AT-1) type-1 (Rattus norvegicus, UniProt P29089+P25095); experiment: Binding affinity expressed as IC50 to the Angiotensin II receptor, type 1, from rat liver membrane
T1 sequence (P29089 whole entry): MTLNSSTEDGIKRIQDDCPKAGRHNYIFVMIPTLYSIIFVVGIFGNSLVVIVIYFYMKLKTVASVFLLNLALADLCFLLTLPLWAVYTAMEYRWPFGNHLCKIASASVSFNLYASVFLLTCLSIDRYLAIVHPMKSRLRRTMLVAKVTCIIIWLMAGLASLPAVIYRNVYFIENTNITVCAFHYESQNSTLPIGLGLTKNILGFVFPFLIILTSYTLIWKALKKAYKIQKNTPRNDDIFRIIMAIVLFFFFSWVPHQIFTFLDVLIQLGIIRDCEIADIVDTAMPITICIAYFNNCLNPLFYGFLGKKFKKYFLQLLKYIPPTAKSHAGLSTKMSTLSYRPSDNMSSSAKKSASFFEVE
T1 sequence (P25095 whole entry): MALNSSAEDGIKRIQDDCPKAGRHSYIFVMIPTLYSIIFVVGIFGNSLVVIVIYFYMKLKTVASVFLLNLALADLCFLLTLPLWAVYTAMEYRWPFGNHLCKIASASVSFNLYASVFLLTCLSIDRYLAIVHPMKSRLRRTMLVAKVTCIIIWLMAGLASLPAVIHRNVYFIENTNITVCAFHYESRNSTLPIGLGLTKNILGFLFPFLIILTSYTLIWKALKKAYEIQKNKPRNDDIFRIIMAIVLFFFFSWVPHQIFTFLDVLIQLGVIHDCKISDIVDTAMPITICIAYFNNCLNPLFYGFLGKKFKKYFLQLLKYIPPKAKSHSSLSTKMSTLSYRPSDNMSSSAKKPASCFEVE

[2] = molecular target: Angiotensin II receptor (AT-1) type-1 (Rattus norvegicus) (UniProt P29089+P25095); experiment: Antihypertensive activity in renal hypertensive rats (RHR) at 30 mg/Kg dose after oral administration; format: functional, organism-based
[3] = molecular target: Angiotensin II receptor type-1 (Oryctolagus cuniculus) (UniProt P34976); experiment: Inhibition of angiotensin II induced contraction in rabbit aortic ring, activity is expressed as IC50
Angiotensin II receptor type-1 (Oryctolagus cuniculus), sequence (P34976 whole entry, looked up): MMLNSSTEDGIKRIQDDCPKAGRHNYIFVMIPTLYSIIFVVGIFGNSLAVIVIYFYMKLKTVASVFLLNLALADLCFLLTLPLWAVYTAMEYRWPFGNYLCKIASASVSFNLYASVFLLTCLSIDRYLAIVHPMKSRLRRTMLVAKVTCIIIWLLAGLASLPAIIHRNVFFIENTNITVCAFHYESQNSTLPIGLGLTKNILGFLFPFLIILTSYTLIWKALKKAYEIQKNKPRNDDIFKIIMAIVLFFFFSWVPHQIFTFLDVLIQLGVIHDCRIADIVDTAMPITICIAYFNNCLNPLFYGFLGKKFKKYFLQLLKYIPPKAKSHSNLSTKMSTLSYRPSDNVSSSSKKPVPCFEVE

| SMILES | IC50 [1] [µM] | Maximum blood pressure change [2] [%] | IC50 [3] [µM] |
| --- | --- | --- | --- |
| CCCCc1ncc(/C=C2/C(=O)NC(=O)N2Cc2cccs2)n1Cc1ccc(C(=O)OC)cc1 | 0.0071 | -19 | 0.028 |
| CCCCc1ncc(/C=C2/C(=O)N(CCSC)C(=O)N2Cc2csc(C)n2)n1Cc1ccc(C(=O)OC)cc1 | 0.0096 |  |  |
| CCCCc1ncc(/C=C2/C(=O)N(CCCC)C(=O)N2Cc2ccc(O)c(O)c2)n1Cc1ccc(C(=O)OC)cc1 | 0.0049 |  |  |
| CCCCc1ncc(/C=C2/C(=O)N(COC)C(=O)N2Cc2csc(C)n2)n1Cc1ccc(C(=O)OC)cc1 | 0.0478 |  |  |
| CCCCc1ncc(/C=C2/C(=O)N(CCCC)C(=O)N2Cc2ccc(Br)s2)n1Cc1ccc(C(=O)OC)cc1 | 0.0178 |  |  |
| CCCCc1ncc(/C=C2/C(=O)N(CCCC)C(=O)N2Cc2c[nH]cn2)n1Cc1ccc(C(=O)OC)cc1 | 0.0545 |  |  |
| CCCCc1ncc(/C=C2/C(=O)N(CCCC)C(=O)N2Cc2ccc(C#N)cc2)n1Cc1ccc(C(=O)OC)cc1 | 0.0111 |  |  |
| CCCCc1ncc(/C=C2/C(=O)N(CCCC)C(=O)N2CCc2ccsc2)n1Cc1ccc(C(=O)OC)cc1 | 0.0146 |  |  |
| CCCCc1ncc(/C=C2/C(=O)N(CCCC)C(=O)N2Cc2ccc(C)s2)n1Cc1ccc(C(=O)O)cc1 | 0.0006 | -22 | 0.0053 |
| CCCCc1ncc(/C=C2/C(=O)N(CCC)C(=O)N2Cc2csc(C)n2)n1Cc1ccc(C(=O)OC)cc1 | 0.009 |  |  |
| CCCCc1ncc(/C=C2/C(=O)N(CCCC)C(=O)N2Cc2ccccc2)n1Cc1ccc(C(=O)OC)cc1 | 0.0124 |  |  |
| CCCCc1ncc(/C=C2\C(=O)NC(=O)N2CCCC)n1Cc1ccc(-c2nn[nH]n2)cc1 | 0.0025 |  |  |
| CCCCc1ncc(/C=C2/C(=O)N(CCCC)C(=O)N2CCc2cccs2)n1Cc1ccc(C(=O)OC)cc1 | 0.0145 |  |  |
| CCCCc1ncc(/C=C2\C(=O)NC(=O)N2CCC(C)C)n1Cc1ccc(C(=O)O)cc1 | 0.0049 |  | 0.074 |
| CCCCc1ncc(/C=C2/C(=O)NC(=O)N2Cc2cccs2)n1Cc1ccc(C(=O)O)cc1 | 0.0023 | -21 | 0.018 |
| CCCCc1ncc(/C=C2/C(=O)N(CCCC)C(=O)N2Cc2ccc(C(=O)OC)s2)n1Cc1ccc(C(=O)OC)cc1 | 0.0042 |  |  |
| CCCCc1ncc(/C=C2/C(=O)NC(=O)N2CCCC)n1Cc1ccc(NS(=O)(=O)C(F)(F)F)cc1 | 0.0033 | -11 | 0.12 |
| CCCCc1ncc(/C=C2\C(=O)NC(=O)N2CCCC)n1Cc1ccc(-c2ccccc2-c2nn[nH]n2)cc1 | 0.0027 |  |  |
| CCCCc1ncc(/C=C2/C(=O)N(CCCC)C(=O)N2Cc2nn[nH]n2)n1Cc1ccc(C(=O)OC)cc1 | 0.0417 |  |  |
| CCCCc1ncc(/C=C2/C(=O)N(CCCC)C(=O)N2Cc2c[nH]c(C)n2)n1Cc1ccc(C(=O)OC)cc1 | 0.245 |  |  |
| CCCCc1ncc(/C=C2/C(=O)N(CCCC)C(=O)N2Cc2ccoc2)n1Cc1ccc(C(=O)OC)cc1 | 0.0083 | -22 | > 0.1 |

| SMILES | IC50 [1] [µM] | Maximum blood pressure change [2] [%] | IC50 [3] [µM] |
| --- | --- | --- | --- |
| CCCCc1ncc(/C=C2/C(=O)N(C)C(=O)N2Cc2csc(C)n2)n1Cc1ccc(C(=O)OC)cc1 | 0.0166 |  |  |
| CCCCCCN1C(=O)N(CCCC)C(=O)/C1=C/c1cnc(CCCC)n1Cc1ccc(C(=O)OC)cc1 | 0.0402 |  |  |
| CCCCc1ncc(/C=C2\C(=O)N(CCCC)C(=O)N2Cc2csc(C)n2)n1Cc1ccc(C(=O)O)cc1 | 0.0017 |  |  |
| CCCCc1ncc(/C=C2/C(=O)N(CCCC)C(=O)N2Cc2ccc(Cl)cc2)n1Cc1ccc(C(=O)OC)cc1 | 0.0176 | -15 | 0.5 |
| CCCCc1ncc(/C=C2/C(=O)N(CCCC)C(=O)N2Cc2csc(C)n2)n1Cc1ccc(C2(C(=O)OC)CCCC2)cc1 | 0.008 |  |  |
| CCCCc1ncc(/C=C2\C(=O)N(CCCC)C(=O)N2CCCC)n1Cc1ccc(C(=O)O)cc1 | 0.0005 |  |  |
| CCCCc1ncc(/C=C2/C(=O)N(CCCC)C(=O)N2Cc2c(C)noc2C)n1Cc1ccc(C(=O)OC)cc1 | 0.198 |  |  |
| CCCCc1ncc(/C=C2/C(=O)N(CCCC)C(=O)N2CCc2ccccc2)n1Cc1ccc(C(=O)OC)cc1 | 0.031 |  |  |
| CCCCc1ncc(/C=C2/C(=O)N(CCCC)C(=O)N2Cc2ccno2)n1Cc1ccc(C(=O)OC)cc1 | 0.0101 | -23 | > 0.1 |
| CCCCc1ncc(/C=C2/C(=O)N(CCCC)C(=O)N2CC2CCCCC2)n1Cc1ccc(C(=O)OC)cc1 | 0.0033 |  |  |
| CCCCc1ncc(/C=C2/C(=O)N(CCCC)C(=O)N2Cc2cccc(C)c2)n1Cc1ccc(C(=O)OC)cc1 | 0.0185 |  |  |
| CCCCc1ncc(/C=C2\C(=O)NC(=O)N2CCCC)n1Cc1ccc(NS(=O)(=O)C(F)(F)F)cc1 | 0.0042 |  |  |
| CCCCc1ncc(/C=C2\C(=O)NC(=O)N2CCCC)n1Cc1ccc(-c2ccccc2C(=O)OC)cc1 | 0.0099 |  |  |
| CCCCc1ncc(/C=C2/C(=O)N(CCCO)C(=O)N2Cc2csc(C)n2)n1Cc1ccc(C(=O)OC)cc1 | 0.0479 |  |  |
| CCCCc1ncc(/C=C2/C(=O)NC(=O)N2CCCC)n1Cc1ccc(-c2ccccc2C(=O)OC)cc1 | 0.0159 |  |  |
| CCCCc1ncc(/C=C2/C(=O)N(CCCC)C(=O)N2Cc2cc(Br)cs2)n1Cc1ccc(C(=O)OC)cc1 | 0.0219 |  |  |
| CCCCc1ncc(/C=C2/C(=O)N(CC)C(=O)N2Cc2csc(C)n2)n1Cc1ccc(C(=O)OC)cc1 | 0.0111 |  |  |
| CCCCc1ncc(/C=C2/C(=O)N(CCCC)C(=O)N2Cc2ccc(C)cc2)n1Cc1ccc(C(=O)OC)cc1 | 0.0346 |  |  |
| CCCCc1ncc(/C=C2/C(=O)N(CCCC)C(=O)N2Cc2ccsc2)n1Cc1ccc(C(=O)OC)cc1 | 0.0048 | -36 |  |
| CCCCc1ncc(/C=C2/C(=O)N(CCCC)C(=O)N2CCCC(F)(F)F)n1Cc1ccc(C(=O)OC)cc1 | 0.0064 |  |  |
| CCCCc1ncc(/C=C2/C(=O)N(CCCC)C(=O)N2Cc2cc(C)on2)n1Cc1ccc(C(=O)OC)cc1 | 0.0085 |  |  |

| SMILES | IC50 [1] [µM] | Maximum blood pressure change [2] [%] | IC50 [3] [µM] |
| --- | --- | --- | --- |
| CCCCc1ncc(/C=C2/C(=O)NC(=O)N2Cc2ccccc2)n1Cc1ccc(C(=O)O)cc1 | 0.004 |  | 0.035 |
| CCCCc1ncc(/C=C2/C(=O)N(CCCC)C(=O)N2Cc2ccc(C(F)(F)F)cc2)n1Cc1ccc(C(=O)OC)cc1 | 0.159 |  |  |
| CCCCc1ncc(/C=C2\C(=O)N(CCCC)C(=O)N2Cc2cccs2)n1Cc1ccc(C(=O)O)cc1 | 0.0006 |  |  |
| CCCCc1ncc(/C=C2/C(=O)N(CCCC)C(=O)N2Cc2ccc(C(=O)OC)cc2)n1Cc1ccc(C(=O)OC)cc1 | 0.0143 |  |  |
| CCCCc1ncc(/C=C2/C(=O)N(CCCC)C(=O)N2Cc2csc(C)n2)n1Cc1ccc(C2(C(=O)O)CCCC2)cc1 | 0.0019 | -16 |  |
| CCCCc1ncc(/C=C2/C(=O)N(CCCC)C(=O)N2Cc2ccc(OC)cc2)n1Cc1ccc(C(=O)OC)cc1 | 0.0098 |  |  |
| CCCCc1ncc(/C=C2/C(=O)N(CCCC)C(=O)N2Cc2ccc([N+](=O)[O-])cc2)n1Cc1ccc(C(=O)OC)cc1 | 0.0169 |  |  |
| CCCCc1ncc(/C=C2/C(=O)N(CCCC)C(=O)N2Cc2cccc(Cl)c2)n1Cc1ccc(C(=O)OC)cc1 | 0.117 |  |  |
| CCCCc1ncc(/C=C2/C(=O)N(CO)C(=O)N2Cc2csc(C)n2)n1Cc1ccc(C(=O)OC)cc1 | 0.0357 |  |  |
| CCCCc1ncc(/C=C2/C(=O)N(CCCC(F)(F)F)C(=O)N2Cc2csc(C)n2)n1Cc1ccc(C(=O)OC)cc1 | 0.07 |  |  |
| CCCCc1ncc(/C=C2/C(=O)NC(=O)N2CCC(C)C)n1Cc1ccc(C(=O)O)cc1 | 0.0066 |  | 0.032 |
| CCCCc1ncc(/C=C2/C(=O)N(CCCC)C(=O)N2Cc2csc(Br)c2)n1Cc1ccc(C(=O)OC)cc1 | 0.0254 |  |  |
| CCCCc1ncc(/C=C2\C(=O)N(CCCC)C(=O)N2Cc2csc(N)n2)n1Cc1ccc(C(=O)O)cc1 | 0.0005 |  |  |
| CCCCc1ncc(/C=C2/C(=O)N(CCCC)C(=O)N2C(c2ccccc2)c2ccccc2)n1Cc1ccc(C(=O)OC)cc1 | 0.884 |  |  |
| CCCCc1ncc(/C=C2/C(=O)N(CCCC)C(=O)N2Cc2cccc[n+]2[O-])n1Cc1ccc(C(=O)OC)cc1 | 0.26 |  |  |
| CCCCc1ncc(/C=C2/C(=O)N(CCCC)C(=O)N2CCCC)n1Cc1ccc(-c2ccccc2C(=O)OC)cc1 | 0.0296 |  |  |
| CCCCCN1C(=O)N(CCCC)C(=O)/C1=C/c1cnc(CCCC)n1Cc1ccc(C(=O)OC)cc1 | 0.0061 |  |  |
| CCCCc1ncc(/C=C2/C(=O)N(CCCC)C(=O)N2Cc2sccc2C)n1Cc1ccc(C(=O)OC)cc1 | 0.0239 |  |  |
| CCCCc1ncc(/C=C2/C(=O)N(CCCC)C(=O)N2C=C(C)C)n1Cc1ccc(C(=O)OC)cc1 | 0.0111 |  |  |
| CCCCc1ncc(/C=C2/C(=O)N(CCCC)C(=O)N2Cc2ccc3ccccc3c2)n1Cc1ccc(C(=O)OC)cc1 | 0.104 |  |  |
| CCCCc1ncc(/C=C2\C(=O)NC(=O)N2Cc2ccccc2)n1Cc1ccc(C(=O)O)cc1 | 0.0034 |  | > 0.1 |
